# What was measured:
# Assay in all cases: relative viability (nuclei count vs DMSO), 5 days (fraction); higher = more cells survive
# NCI-H2126 = test system: NCI-H2126
# Method in brief: (§1)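 Nuclei were stained with Hoechst during a one-step fixation (final 0.05% Triton X-100, 1% formaldehyde, 1 ug/ml Hoechst) carried out 5 days after dosing, then counted on 4× images. The cells, lung cancer lines in 1536-well plates, had been dosed by pin tool the day after seeding with one drug alone or a fixed anchor-drug dose plus five library-drug doses (not always all listed) in √10 steps. Relative viability is the nuclei count in treated wells divided by that in vehicle wells, and each value is the median of duplicate plates.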
# CAL-12T = test system: CAL-12T
# Method in brief: as §1
# EPLC-272H = test system: EPLC-272H
# Method in brief: as §1
# LXF-289 = test system: LXF-289
# Method in brief: as §1
# NCI-H1915 = test system: NCI-H1915
# Method in brief: as §1
# NCI-H3122 = test system: NCI-H3122
# Method in brief: as §1
# HOP-62 = test system: HOP-62
# Method in brief: as §1
# NCI-H1975 = test system: NCI-H1975
# Method in brief: as §1
# NCI-H1666 = test system: NCI-H1666
# Method in brief: as §1
# UMC-11 = test system: UMC-11
# Method in brief: as §1
# NCI-H2023 = test system: NCI-H2023
# Method in brief: as §1
# NCI-H441 = test system: NCI-H441
# Method in brief: as §1
# EMC-BAC-2 = test system: EMC-BAC-2
# Method in brief: as §1
# NCI-H358 = test system: NCI-H358
# Method in brief: as §1
# HCC-15 = test system: HCC-15
# Method in brief: as §1
# NCI-H2085 = test system: NCI-H2085
# Method in brief: as §1
# NCI-H1755 = test system: NCI-H1755
# Method in brief: as §1
# COR-L 105 = test system: COR-L 105
# Method in brief: as §1
# ABC-1 = test system: ABC-1
# Method in brief: as §1
# HCC-78 = test system: HCC-78
# Method in brief: as §1
# NCI-H322M = test system: NCI-H322M
# Method in brief: as §1
compound,measurement,setting,value
COc1nc(C)cnc1NS(=O)(=O)c1cccnc1-c1ccc(-c2nnco2)cc1 [Zibotentan] + C[C@]1(O)C[C@@H](c2nc(-c3ccc4ccc(-c5ccccc5)nc4c3)c3c(N)nccn32)C1 [Linsitinib] (partner 1 µM),relative viability,NCI-H2126; first compound 0.08 µM,0.733
same,relative viability,NCI-H2126; first compound 0.253 µM,0.625
same,relative viability,NCI-H2126; first compound 0.8 µM,0.745
same,relative viability,NCI-H2126; first compound 2.53 µM,0.716
same,relative viability,CAL-12T; first compound 0.08 µM,0.903
same,relative viability,CAL-12T; first compound 0.253 µM,0.876
same,relative viability,CAL-12T; first compound 0.8 µM,0.889
same,relative viability,CAL-12T; first compound 2.53 µM,0.634
same,relative viability,EPLC-272H; first compound 0.08 µM,1.06
same,relative viability,EPLC-272H; first compound 0.253 µM,1.23
same,relative viability,EPLC-272H; first compound 0.8 µM,1.33
same,relative viability,EPLC-272H; first compound 2.53 µM,1.22
same,relative viability,LXF-289; first compound 0.08 µM,1.01
same,relative viability,LXF-289; first compound 0.253 µM,0.998
same,relative viability,LXF-289; first compound 0.8 µM,0.969
same,relative viability,LXF-289; first compound 2.53 µM,1.01
same,relative viability,NCI-H1915; first compound 0.08 µM,0.917
same,relative viability,NCI-H1915; first compound 0.253 µM,1.19
same,relative viability,NCI-H1915; first compound 0.8 µM,1.11
same,relative viability,NCI-H1915; first compound 2.53 µM,1.08
same,relative viability,NCI-H3122; first compound 0.08 µM,0.983
same,relative viability,NCI-H3122; first compound 0.253 µM,0.972
same,relative viability,NCI-H3122; first compound 0.8 µM,1
same,relative viability,NCI-H3122; first compound 2.53 µM,0.963
same,relative viability,HOP-62; first compound 0.08 µM,0.805
same,relative viability,HOP-62; first compound 0.253 µM,1.06
same,relative viability,HOP-62; first compound 0.8 µM,0.992
same,relative viability,HOP-62; first compound 2.53 µM,1.29
same,relative viability,NCI-H1975; first compound 0.08 µM,0.947
same,relative viability,NCI-H1975; first compound 0.253 µM,0.895
same,relative viability,NCI-H1975; first compound 0.8 µM,0.94
same,relative viability,NCI-H1975; first compound 2.53 µM,0.884
same,relative viability,NCI-H1666; first compound 0.08 µM,0.656
same,relative viability,NCI-H1666; first compound 0.253 µM,0.709
same,relative viability,NCI-H1666; first compound 0.8 µM,0.877
same,relative viability,NCI-H1666; first compound 2.53 µM,0.825
same,relative viability,UMC-11; first compound 0.08 µM,1.11
same,relative viability,UMC-11; first compound 0.253 µM,0.944
same,relative viability,UMC-11; first compound 0.8 µM,1.03
same,relative viability,UMC-11; first compound 2.53 µM,1.05
same,relative viability,NCI-H2023; first compound 0.08 µM,0.57
same,relative viability,NCI-H2023; first compound 0.253 µM,0.544
same,relative viability,NCI-H2023; first compound 0.8 µM,0.743
same,relative viability,NCI-H2023; first compound 2.53 µM,0.654
same,relative viability,NCI-H441; first compound 0.08 µM,0.634
same,relative viability,NCI-H441; first compound 0.253 µM,0.552
same,relative viability,NCI-H441; first compound 0.8 µM,0.633
same,relative viability,NCI-H441; first compound 2.53 µM,0.535
same,relative viability,EMC-BAC-2; first compound 0.08 µM,0.895
same,relative viability,EMC-BAC-2; first compound 0.253 µM,0.785
same,relative viability,EMC-BAC-2; first compound 0.8 µM,0.823
same,relative viability,EMC-BAC-2; first compound 2.53 µM,0.905
same,relative viability,NCI-H358; first compound 0.08 µM,0.782
same,relative viability,NCI-H358; first compound 0.8 µM,0.778
same,relative viability,NCI-H358; first compound 2.53 µM,0.805
same,relative viability,HCC-15; first compound 0.08 µM,0.905
same,relative viability,HCC-15; first compound 0.253 µM,0.912
same,relative viability,HCC-15; first compound 0.8 µM,0.867
same,relative viability,HCC-15; first compound 2.53 µM,0.878
same,relative viability,NCI-H2085; first compound 0.08 µM,0.852
same,relative viability,NCI-H2085; first compound 0.253 µM,0.818
same,relative viability,NCI-H2085; first compound 0.8 µM,0.944
same,relative viability,NCI-H2085; first compound 2.53 µM,0.944
same,relative viability,NCI-H1755; first compound 0.08 µM,0.99
same,relative viability,NCI-H1755; first compound 0.253 µM,0.967
same,relative viability,NCI-H1755; first compound 0.8 µM,1.03
same,relative viability,NCI-H1755; first compound 2.53 µM,1.03
same,relative viability,COR-L 105; first compound 0.08 µM,1.02
same,relative viability,COR-L 105; first compound 0.253 µM,0.871
same,relative viability,COR-L 105; first compound 0.8 µM,0.986
same,relative viability,COR-L 105; first compound 2.53 µM,0.919
same,relative viability,ABC-1; first compound 0.08 µM,0.775
same,relative viability,ABC-1; first compound 0.253 µM,0.803
same,relative viability,ABC-1; first compound 0.8 µM,1.01
same,relative viability,ABC-1; first compound 2.53 µM,0.822
same,relative viability,HCC-78; first compound 0.08 µM,0.548
same,relative viability,HCC-78; first compound 0.253 µM,0.503
same,relative viability,HCC-78; first compound 0.8 µM,0.411
same,relative viability,HCC-78; first compound 2.53 µM,0.49
same,relative viability,NCI-H322M; first compound 0.08 µM,0.912
same,relative viability,NCI-H322M; first compound 0.253 µM,0.898
same,relative viability,NCI-H322M; first compound 0.8 µM,0.933
same,relative viability,NCI-H322M; first compound 2.53 µM,0.843

# From the supplement of paper PMC10307832
